We go through two compounds from patent publication US5262417A, “Antibacterial quinolone compounds” (The Upjohn Company, priority 1991, dated 1993).

Where two headings read alike, the source gives them in different places.

Holding throughout (test): Minimum inhibitory concentration (MIC) by agar dilution
Holding throughout (assay type): cell-based
Background: In agar dilution, organisms are placed on agar that contains the substance at set levels.

One test relates to Enterobacter cloacae. The settings on record: UC9382, 20 h, read-out: Minimum Inhibitory Concentration. The method, then: (§1) Briefly, MIC values are determined in unsupplemented Mueller Hinton Agar (MHA). The compounds tested are diluted serially into molten MHA at 47° C. The agar is poured into petri dishes and allowed to harden. The various bacteria used for testing are grown overnight on MHA at 35° C. and transferred to Trypticase soy broth (TSB) until a turbidity of 0.5 McFarland standard is obtained. The bacteria are diluted one to 20 in TSB and inoculated on the plates (1 μl using a Steers replicator).
as §1, with “Compounds of this invention can also be tested for in vitro antimicrobial activity using standard testing procedures such as the determination of minimum inhibitory concentration (MIC) by agar dilution as described in "Methods for Dilution Antimicrobial Susceptibility Tests for Bacteria That Grow Aerobically" (MFT) published Jan. […] Briefly,” for “Briefly,”, “(1μl” for “(1 μl”

Test [1] relates to Acinetobacter calcoaceticus. The settings on record: Acinetobacter calcoaceticus, UC12170, 20 h. How it is done:
as §1, with “The antibacterial activity of the compounds of Formula IC was determined by using standard testing procedures such as the determination of minimum inhibitory concentration (MIC) by agar dilution as described in "Methods for Dilution Antimicrobial Susceptibility Tests for Bacteria That Grow Aerobically" (MFT) published January 1983 by the National Committee for Clinical Laboratory Standards, 771 East Lancaster Avenue, Villanova, Pa. 19084, USA. Briefly,” for “Briefly,”
(§2) Compounds of this invention can also be tested for in vitro antimicrobial activity using standard testing procedures such as the determination of minimum inhibitory concentration (MIC) by agar dilution as described in "Methods for Dilution Antimicrobial Susceptibility Tests for Bacteria That Grow Aerobically" (MFT) published Jan. 1983 by the National Committee for Clinical Laboratory Standards, 771 East Lancaster Avenue, Villanova, Penna. 19084, USA. Briefly, MIC values are determined in unsupplemented Mueller Hinton Agar (MHA). The compounds tested are diluted serially into molten MHA at 47° C. The agar is poured into petri dishes and allowed to harden. The various bacteria used for testing are grown overnight on MHA at 35° C. and transferred to Trypticase soy broth (TSB) until a turbidity of 0.5 McFarland standard is obtained. The bacteria are diluted one to 20 in TSB and inoculated on the plates (1μl using a Steers replicator). […] The MIC test results of selected of Formula B compounds of this invention are found in Tables B2-B9.

A further test has as its system Citerobacter freundii. The note with it: Citrobacter freundii, UC3507, 20 h, read-out: Minimum Inhibitory Concentration. The method, then:
(§3) The antibacterial activity of the compounds of Formula IC was determined by using standard testing procedures such as the determination of minimum inhibitory concentration (MIC) by agar dilution as described in "Methods for Dilution Antimicrobial Susceptibility Tests for Bacteria That Grow Aerobically" (MFT) published January 1983 by the National Committee for Clinical Laboratory Standards, 771 East Lancaster Avenue, Villanova, Pa. 19084, USA. Briefly, MIC values are determined in unsupplemented Mueller Hinton Agar (MHA). The compounds tested are diluted serially into molten MHA at 47° C. The agar is poured into petri dishes and allowed to harden. The various bacteria used for testing are grown overnight on MHA at 35° C. and transferred to Trypticase soy broth (TSB) until a turbidity of 0.5 McFarland standard is obtained. The bacteria are diluted one to 20 in TSB and inoculated on the plates (1 μl using a Steers replicator).
as §2

For the next test, the system named is Escherichia coli. The note with it: Escherichia coli. How it is done:
as §3, §2

The next test deals with Klebsiella pneumoniae. The settings on record: UC12081, 20 h, read-out: Minimum Inhibitory Concentration. The method, then:
as §3, §2

The next test deals with Proteus penneri. The settings on record: Proteus penneri, UC9679, 20 h. How it is done: as §3, §2
Another test relates to Pseudomonas aeruginosa. The settings on record: Pseudomonas aeruginosa. The method, then: as §3, §2
The subject of a further test is Serratia marcescens. The note with it: 20 h, read-out: MINIMUM INHIBITORY CONCENTRATION
How it is done: as §3, §2

The test system of a further test is Staphylococcus aureus. The note with it: Staphylococcus aureus. The method, then: as §3, §2
Test [2] has as its system Staphylococcus epidermidis. The settings on record: 20 h, read-out: Minimum Inhibitory Concentration. How it is done: as §3, §2
The test system of another test is Streptococcus faecalis. The settings on record: Enterococcus faecalis, UC9217, 20 h, read-out: Minimum Inhibitory Concentration. The method, then: as §3, §2
For the next test, the system named is Streptococcus pneumoniae. The settings on record: Streptococcus pneumoniae, UC41, 20 h. The method, then:
as §3, §2

The next test relates to Streptococcus pyogenes. The note with it: Streptococcus pyogenes, UC152, 20 h. The method, then: as §3, §2

As for `C#CC(C)(C)n1cc(C(=O)O)c(=O)c2cc(F)c(N3CCNCC3)c(F)c21.CS(=O)(=O)O` [A, (+,-)-6,8-difluoro-1,4-dihydro-1-(1,1-dimethyl-2-propynyl)-4-oxo-7-(1-piperazinyl)-3-quinolinecarboxylic acid methanesulfonate], the MIC in the test on Enterobacter cloacae is 0.25 µg/mL; in test [1] (read-out: Minimum Inhibitory Concentration, A. calcoaceticus UC 12170, Table CI) it was 1 µg/mL; with Citerobacter freundii it was 0.25 µg/mL; in the test with Escherichia coli (UC6674, 20 h, read-out: Minimum Inhibitory Concentration, E. coli UC 6674, Table CI), 0.25 µg/mL; in the test on Escherichia coli (UC9451, 20 h, read-out: Minimum Inhibitory Concentration, E. coli UC 9451, Table CI), 0.25 µg/mL; with Escherichia coli (UC9855, 20 h, read-out: Minimum Inhibitory Concentration, E. coli UC 9855, Table CI), 0.25 µg/mL. Besides, the MIC with Escherichia coli (UC9952, 20 h, read-out: Minimum Inhibitory Concentration, E. coli UC 9952, Table CI) worked out at 0.25 µg/mL; in the test with Klebsiella pneumoniae it was 0.5 µg/mL; with Proteus penneri (read-out: Minimum Inhibitory Concentration, P. penneri UC 9679, Table CI) it was 1 µg/mL; with Pseudomonas aeruginosa (UC6676, 20 h, read-out: Minimum Inhibitory Concentration, Ps. aeruginosa UC 6676, Table CI) it was 4 µg/mL; with Pseudomonas aeruginosa (UC9191, 20 h, read-out: Minimum Inhibitory Concentration, Ps. aeruginosa UC 9191, Table CI) it was 2 µg/mL; with Pseudomonas aeruginosa (UC12120, 20 h, read-out: Minimum Inhibitory Concentration, Ps. aeruginosa UC 12120, Table CI), 2 µg/mL. In addition, the MIC in the test with Serratia marcescens stood at 2 µg/mL; with Staphylococcus aureus (UC6685, 20 h, read-out: Minimum Inhibitory Concentration, S. aureus UC 6685, Table CI) it was 2 µg/mL; in the test on Staphylococcus aureus (UC9213, 20 h, read-out: Minimum Inhibitory Concentration, S. aureus UC 9213, Table CI), 4 µg/mL; with Staphylococcus aureus (UC9218, 20 h, read-out: Minimum Inhibitory Concentration, S. aureus UC 9218, Table CI), 2 µg/mL; in the test on Staphylococcus aureus (UC9271, 20 h, read-out: Minimum Inhibitory Concentration, S. aureus UC 9271, Table CI), 2 µg/mL; in test [2], 1 µg/mL. The MIC came out at 8 µg/mL with Streptococcus faecalis; 8 µg/mL in the test with Streptococcus pneumoniae (read-out: Minimum Inhibitory Concentration, S. pneumoniae UC 41, Table CI); 8 µg/mL with Streptococcus pyogenes (read-out: Minimum Inhibitory Concentration, S. pyogenes UC 152, Table CI).

As for `C#CC(C)(C)n1cc(C(=O)O)c(=O)c2cc(F)c(N3CCC(N)C3)nc21.CS(=O)(=O)O` (racemic) [E, (+,-)-7-(3-amino-1-pyrrolidinyl)-1,4-dihydro-1-(1,1-dimethyl-2-propynyl)-6-fluoro-4-oxo-1,8-naphthyridine-3-carboxylic acid methanesulfonate], the MIC with Enterobacter cloacae (E. cloacae UC 9382, Table CI) is 0.06 µg/mL; in [1] (A. calcoaceticus UC 12170, Table CI, read-out: Minimum Inhibitory Concentration), 0.25 µg/mL; with Citerobacter freundii (C. freundii UC 3507, Table CI), 0.06 µg/mL; in the test on Escherichia coli (UC6674, 20 h, E. coli UC 6674, Table CI, read-out: Minimum Inhibitory Concentration), 0.06 µg/mL; in the test with Escherichia coli (UC9451, 20 h, E. coli UC 9451, Table CI, read-out: Minimum Inhibitory Concentration), 0.06 µg/mL; in the test on Escherichia coli (UC9855, 20 h, E. coli UC 9855, Table CI, read-out: Minimum Inhibitory Concentration), 0.06 µg/mL. Further, the MIC with Escherichia coli (UC9952, 20 h, E. coli UC 9952, Table CI, read-out: Minimum Inhibitory Concentration) came out at 0.06 µg/mL; in the test on Klebsiella pneumoniae (K. pneumoniae UC 12081, Table CI), 0.125 µg/mL; in the test with Proteus penneri (P. penneri UC 9679, Table CI, read-out: Minimum Inhibitory Concentration) it was 0.5 µg/mL; in the test on Pseudomonas aeruginosa (UC6676, 20 h, Ps. aeruginosa UC 6676, Table CI, read-out: Minimum Inhibitory Concentration), 2 µg/mL; in the test on Pseudomonas aeruginosa (UC9191, 20 h, Ps. aeruginosa UC 9191, Table CI, read-out: Minimum Inhibitory Concentration) it was 1 µg/mL; in the test with Pseudomonas aeruginosa (UC12120, 20 h, Ps. aeruginosa UC 12120, Table CI, read-out: Minimum Inhibitory Concentration), 0.5 µg/mL. Further, the MIC in the test with Staphylococcus aureus (UC6685, 20 h, S. aureus UC 6685, Table CI, read-out: Minimum Inhibitory Concentration) worked out at 0.125 µg/mL; in the test on Staphylococcus aureus (UC9213, 20 h, S. aureus UC 9213, Table CI, read-out: Minimum Inhibitory Concentration), 0.25 µg/mL; in the test with Staphylococcus aureus (UC9218, 20 h, S. aureus UC 9218, Table CI, read-out: Minimum Inhibitory Concentration), 0.25 µg/mL; in the test on Staphylococcus aureus (UC9271, 20 h, S. aureus UC 9271, Table CI, read-out: Minimum Inhibitory Concentration) it was 0.25 µg/mL; in [2] (S. epidermidis 30031, Table CI), 0.125 µg/mL; in the test with Streptococcus faecalis (S. faecalis UC 9217, Table CI), 1 µg/mL. In addition, the MIC with Streptococcus pneumoniae (S. pneumoniae UC 41, Table CI, read-out: Minimum Inhibitory Concentration) is 0.5 µg/mL; with Streptococcus pyogenes (S. pyogenes UC 152, Table CI, read-out: Minimum Inhibitory Concentration) it was 0.25 µg/mL.
